Test results taken from ChEMBL document CHEMBL1201862, “PubChem BioAssay data set” (2004).
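Each compound was tested at five concentrations against cells in 96-well plates for 48 hours. GI50 is the concentration that inhibits growth by half.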 Calls of active or inactive are those of the source. No stated cut-off is given here; in the data, active = GI50 up to about 1.1 µM and inactive = higher.

Experiments:
Test in all cases: inhibition of tumour cell growth, NCI panel, 48 h
786-0 = tested on: 786-0
A549 = tested on: A549
ACHN = tested on: ACHN
CAKI-1 = tested on: CAKI-1
CCRF-CEM = tested on: CCRF-CEM
COLO 205 = tested on: COLO 205
DLD-1 = tested on: DLD-1
DMS-114 = tested on: DMS-114
DMS-273 = tested on: DMS-273
EKVX = tested on: EKVX
HCC 2998 = tested on: HCC 2998
HCT-116 = tested on: HCT-116
HCT-15 = tested on: HCT-15
HL-60 = tested on: HL-60
HOP-18 = tested on: HOP-18
HOP-62 = tested on: HOP-62
HOP-92 = tested on: HOP-92
HT-29 = tested on: HT-29
IGROV-1 = tested on: IGROV-1
K562 = tested on: K562
KM-20L2 = tested on: KM-20L2
KM12 = tested on: KM12
LOX IMVI = tested on: LOX IMVI
LXFL 529 = tested on: LXFL 529
M14 = tested on: M14
M19-MEL = tested on: M19-MEL
MOLT-4 = tested on: MOLT-4
Malme-3M = tested on: Malme-3M
NCI-H226 = tested on: NCI-H226
NCI-H23 = tested on: NCI-H23
NCI-H460 = tested on: NCI-H460
NCI-H522 = tested on: NCI-H522
OVCAR-3 = tested on: OVCAR-3
OVCAR-4 = tested on: OVCAR-4
OVCAR-5 = tested on: OVCAR-5
OVCAR-8 = tested on: OVCAR-8
RPMI-8226 = tested on: RPMI-8226
RXF 393 = tested on: RXF 393
SF-268 = tested on: SF-268
SF-295 = tested on: SF-295
SF-539 = tested on: SF-539
SK-MEL-28 = tested on: SK-MEL-28
SK-MEL-2 = tested on: SK-MEL-2
SK-MEL-5 = tested on: SK-MEL-5
SK-OV-3 = tested on: SK-OV-3
SN12C = tested on: SN12C
SNB-19 = tested on: SNB-19
SNB-75 = tested on: SNB-75
SNB-78 = tested on: SNB-78
SR = tested on: SR
SW-620 = tested on: SW-620
TK-10 = tested on: TK-10
U-251 = tested on: U-251
UACC-257 = tested on: UACC-257
UACC-62 = tested on: UACC-62
UO-31 = tested on: UO-31
XF498 = tested on: XF498
A498 = tested on: A498
RXF 631 = tested on: RXF 631

SMILES: S=c1sc2c(n1-c1ccccc1)N=CNC2S (stereo not drawn)
- GI50 (786-0): > 100 µM (inactive)
- GI50 (A549): 65.9 µM (inactive)
- GI50 (ACHN): 60.5 µM (inactive)
- GI50 (CAKI-1): > 100 µM (inactive)
- GI50 (CCRF-CEM): 46.2 µM (inactive)
- GI50 (COLO 205): > 100 µM (inactive)
- GI50 (DLD-1): > 100 µM (inactive)
- GI50 (DMS-114): 31.1 µM (inactive)
- GI50 (DMS-273): > 100 µM (inactive)
- GI50 (EKVX): 64.1 µM (inactive)
- GI50 (HCC 2998): 33.1 µM (inactive)
- GI50 (HCT-116): 98.4 µM (inactive)
- GI50 (HCT-15): 97.3 µM
- GI50 (HL-60): 71.6 µM (inactive)
- GI50 (HOP-18): 28.8 µM (inactive)
- GI50 (HOP-62): 41.3 µM (inactive)
- GI50 (HOP-92): 25.9 µM (inactive)
- GI50 (HT-29): > 100 µM (inactive)
- GI50 (IGROV-1): > 100 µM (inactive)
- GI50 (K562): 63.2 µM (inactive)
- GI50 (KM-20L2): > 100 µM (inactive)
- GI50 (KM12): > 100 µM (inactive)
- GI50 (LOX IMVI): > 100 µM (inactive)
- GI50 (LXFL 529): > 100 µM (inactive)
- GI50 (M14): > 100 µM (inactive)
- GI50 (M19-MEL): 96.4 µM (inactive)
- GI50 (MOLT-4): 92.5 µM (inactive)
- GI50 (Malme-3M): 44.8 µM (inactive)
- GI50 (NCI-H226): 44.6 µM (inactive)
- GI50 (NCI-H23): 63 µM (inactive)
- GI50 (NCI-H460): > 100 µM (inactive)
- GI50 (NCI-H522): 45.5 µM (inactive)
- GI50 (OVCAR-3): 77.1 µM (inactive)
- GI50 (OVCAR-4): > 100 µM (inactive)
- GI50 (OVCAR-5): > 100 µM (inactive)
- GI50 (OVCAR-8): > 100 µM (inactive)
- GI50 (RPMI-8226): 62.2 µM (inactive)
- GI50 (RXF 393): > 100 µM (inactive)
- GI50 (SF-268): 56.5 µM (inactive)
- GI50 (SF-295): 84.7 µM (inactive)
- GI50 (SF-539): 65.3 µM (inactive)
- GI50 (SK-MEL-28): > 100 µM (inactive)
- GI50 (SK-MEL-2): > 100 µM (inactive)
- GI50 (SK-MEL-5): 57 µM (inactive)
- GI50 (SK-OV-3): > 100 µM (inactive)
- GI50 (SN12C): 69.3 µM (inactive)
- GI50 (SNB-19): 73.1 µM (inactive)
- GI50 (SNB-75): 56.6 µM (inactive)
- GI50 (SNB-78): 87.5 µM (inactive)
- GI50 (SR): 95.9 µM (inactive)
- GI50 (SW-620): > 100 µM (inactive)
- GI50 (TK-10): > 100 µM (inactive)
- GI50 (U-251): 36.1 µM (inactive)
- GI50 (UACC-257): 48.8 µM (inactive)
- GI50 (UACC-62): 43.7 µM (inactive)
- GI50 (UO-31): 37.3 µM (inactive)
- GI50 (XF498): > 100 µM (inactive)

SMILES: CN(C)CC(C)(C)C(=O)/C=C/c1ccc(/C=C/C(=O)C(C)(C)CN(C)C)cc1
- GI50 (786-0): 1.6 µM (inactive)
- GI50 (A498): 1.9 µM (inactive)
- GI50 (A549): 2.79 µM (inactive)
- GI50 (ACHN): 1.47 µM (inactive)
- GI50 (CAKI-1): 1.42 µM (inactive)
- GI50 (CCRF-CEM): 1.05 µM (active)
- GI50 (COLO 205): 1.03 µM (active)
- GI50 (DLD-1): 0.28 µM (active)
- GI50 (DMS-114): 1.3 µM (inactive)
- GI50 (DMS-273): 0.706 µM (active)
- GI50 (EKVX): 1.45 µM (inactive)
- GI50 (HCC 2998): 1.66 µM (inactive)
- GI50 (HCT-116): 1.26 µM (inactive)
- GI50 (HCT-15): 0.605 µM
- GI50 (HL-60): 1.61 µM (inactive)
- GI50 (HOP-62): 2.14 µM (inactive)
- GI50 (HOP-92): 0.682 µM (active)
- GI50 (HT-29): 0.51 µM (active)
- GI50 (IGROV-1): 1.71 µM (inactive)
- GI50 (K562): 0.202 µM (active)
- GI50 (KM-20L2): 1.04 µM (active)
- GI50 (KM12): 1.85 µM (inactive)
- GI50 (LOX IMVI): 0.456 µM (active)
- GI50 (LXFL 529): 1.17 µM (inactive)
- GI50 (M14): 1.62 µM (inactive)
- GI50 (M19-MEL): 1.66 µM (inactive)
- GI50 (MOLT-4): 0.519 µM (active)
- GI50 (Malme-3M): 1.87 µM (inactive)
- GI50 (NCI-H226): 2.23 µM (inactive)
- GI50 (NCI-H23): 1.91 µM (inactive)
- GI50 (NCI-H460): 3.78 µM (inactive)
- GI50 (NCI-H522): 0.136 µM (active)
- GI50 (OVCAR-3): 1.29 µM (inactive)
- GI50 (OVCAR-4): 1.02 µM (active)
- GI50 (OVCAR-5): 1.82 µM (inactive)
- GI50 (OVCAR-8): 2.39 µM (inactive)
- GI50 (RPMI-8226): 1.97 µM (inactive)
- GI50 (RXF 393): 1.17 µM (inactive)
- GI50 (RXF 631): 2 µM (inactive)
- GI50 (SF-268): 1.35 µM (inactive)
- GI50 (SF-295): 2.05 µM (inactive)
- GI50 (SF-539): 2.13 µM (inactive)
- GI50 (SK-MEL-28): 1.87 µM (inactive)
- GI50 (SK-MEL-5): 2.32 µM (inactive)
- GI50 (SK-OV-3): 2.81 µM (inactive)
- GI50 (SN12C): 1.42 µM (inactive)
- GI50 (SNB-19): 1.96 µM (inactive)
- GI50 (SNB-75): 1.58 µM (inactive)
- GI50 (SR): 2.28 µM (inactive)
- GI50 (SW-620): 0.706 µM (active)
- GI50 (TK-10): 1.64 µM (inactive)
- GI50 (U-251): 1.61 µM (inactive)
- GI50 (UACC-257): 2.09 µM (inactive)
- GI50 (UACC-62): 1.74 µM (inactive)
- GI50 (UO-31): 1.99 µM (inactive)
- GI50 (XF498): 1.22 µM (inactive)
